A short description of series [1]: Fractional α‐helicity by circular dichroism (CD) spectroscopy. Type of series: physicochemical. The note with it: for fH (exp), measured fractional helicity via CD spectroscopy: 60 μM peptide, 10 mM sodium phosphate buffer pH 7.4, 4 °C, CDSSTR algorithm on DichroWeb. (CD spectra are sensitive to the conformation of chiral molecules.)
The target in series [2] is Spike RBD RBD (Severe acute respiratory syndrome coronavirus 2), P0DTC2. Nature of the series: MST. The note with it: modification not given.

As for “Ac-QAKTFLDKFNHEAEDLFYQ-NH2 [P‐1‐3, N‐acetylated parent peptide, α1 from Gln24 to Gln42]”, the “fH (exp), measured fractional helicity via CD spectroscopy” value in series [1] is not above 1%. Regarding “Ac‐ E QAK AAA DK AA HEAE AAA YQ K ‐NH2 [P‐3‐3]”, the “fH (exp), measured fractional helicity via CD spectroscopy” value in series [1] worked out at 42%. Moreover, the “α‐helicity from CD spectra (in words)” value in series [1] (60 μM, 10 mM sodium phosphate buffer, pH 7.4, 4 °C) is given as “pronounced α‐helicity”. As to “Ac‐ E QAKTFLDKFNHEAEDLFYQ K ‐NH2 [P‐2‐3]”, in series [1], the “fH (exp), measured fractional helicity via CD spectroscopy” value was 5%.

On to “Ac‐βHAsp‐P‐P‐QAKTFLDKFNHEAEDLFYQ‐NH2 [P‐1‐2]”, for which, in series [1], the “fH (exp), measured fractional helicity via CD spectroscopy” value is on record as 4%.

For “Ac‐βHAsp‐[ProM‐5]‐QAKTFLDKFNHEAEDLFYQ‐NH2 [P‐1‐1, βHAsp‐ProM‐5 N‐capped peptide of ACE2 α1 Gln24 to Gln42]”, the “fH (exp), measured fractional helicity via CD spectroscopy” value in series [1] amounted to 4%.

For the molecule PPEQAKTFLDKFNHEAEDLFYQK [ACE2 alpha1 peptide P-2-2], the Kd in series [2] stood at 62 nM. This lies in the double-digit nanomolar range. As to EQAKTFLDKFNHEAEDLFYQK [ACE2 alpha1 peptide P-2-1], the dissociation constant (Kd) in series [2] is 1210 nM.

What is called Kd is the concentration at which binding is half-saturated. A low value points to a tighter complex.

Source of the values: paper PMC9350387, “Synthetic α‐Helical Peptides as Potential Inhibitors of the ACE2 SARS‐CoV‐2 Interaction” (Chembiochem, 2022).
